Active and inactive are the calls of the source. No rule for the calls is given here.
target: Serine/threonine-protein kinase mTOR (Homo sapiens) (UniProt P42345); assay: mTOR FRB domain ligand binding – biophysical, NMR (AID 1648); settings: NMR binding to FRB domain, chemical shift
Sequence (P42345 2015-2114): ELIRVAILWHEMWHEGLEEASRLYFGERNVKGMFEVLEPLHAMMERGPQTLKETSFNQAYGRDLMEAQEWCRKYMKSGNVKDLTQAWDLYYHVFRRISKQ

Kd, inactive:
O=C1NC(=S)N/C1=C\c1cccnc1 > 4 mM, CCn1cnc2cc([N+](=O)[O-])ccc2c1=O > 4 mM, COc1ccc(-c2oc3c(CC=C(C)C)c(O[C@@H]4O[C@H](CO)[C@@H](O)[C@H](O)[C@H]4O)cc(O)c3c(=O)c2O[C@@H]2O[C@@H](C)[C@H](O)[C@@H](O)[C@H]2O)cc1 > 4 mM, COc1cc(O)c2c(c1)C(=O)c1cc(C)cc(O)c1C2=O > 4 mM, CC(=O)NC(=S)Nc1ccc(N(C)C(C)=O)cc1 > 4 mM, OCC1Cc2ccccc2N1 (centres undefined) > 4 mM, CC1(C)O[C@H]2[C@H](O)C[C@](O)(C(N)=O)C[C@H]2O1 > 4 mM, CNC(=O)C(=O)Nc1cccc(Cl)c1 > 4 mM, C/C=C(\C)c1nnc(NC(=O)C(C)C)s1 > 4 mM, CCCNC(=O)CSc1nnc(C)s1 > 4 mM, CC(C)=CC(=O)Nc1ccc(S(N)(=O)=O)cc1 > 4 mM, Nc1nonc1-c1nc2ccccc2[nH]1 > 4 mM, CC(C)(CO)NC(=O)c1ccccc1F > 4 mM, O=c1c[n+]([O-])c2ccccc2n1OCc1ccccn1 > 4 mM, OC1(c2ccc(Cl)cc2)CCNCC1 > 4 mM, CC(C)n1c(Nn2cnnc2)nc2ccccc21 > 4 mM, CCOC(=O)c1cc(C)n(-n2cnnc2)c1C > 4 mM, CSc1nc(C)cc(Oc2ccc(=O)n(C)n2)n1 > 4 mM, Cc1noc(-c2ccccc2)c1C(=O)O > 4 mM, CN(C)c1ccc(/C=C2/NC(=S)NC2=O)cc1 > 4 mM, O=C1C2=C(SCCS2)C(=O)N1CCCO > 4 mM, C/C=C1\[C@H]2C=C(C)C[C@]1(N)c1ccc(=O)[nH]c1C2 > 4 mM, CC1CCN(C(=S)c2ccccc2O)CC1 > 4 mM, CCCCCCCCCCCCCc1ccco1 > 4 mM, CC(=O)Nc1cc(N2C(=O)C=CC2=O)ccc1Cl > 4 mM, Cc1ccc(-c2nn(C)c(=O)c3ccccc23)cc1CO > 4 mM, O=C(CSc1ncn[nH]1)c1ccc2c(c1)OCCO2 > 4 mM, O=c1cnnc(Nc2ccc(O)cc2)[nH]1 > 4 mM, Cc1nc(-c2ccc(CO)s2)cs1 > 4 mM, CC(C)(C)NC(=O)CN1C(=O)c2ccccc2S1(=O)=O > 4 mM, CC(=O)NC12CC3CC(C)(C1)CC(NC(C)=O)(C3)C2 > 4 mM, Cc1scc(C(=O)Nn2cnnc2)c1-c1ccccc1 > 4 mM, Cc1nc2ccccc2c(=O)n1/N=C/c1ccncc1 > 4 mM, COc1ccc(-c2cc(=O)c3ccccc3o2)cc1 > 4 mM, OCCN1CCN(C(=S)c2ccc(Cl)cc2)CC1 > 4 mM, CNC(=S)Nc1cccc(C(=O)O)c1 > 4 mM, OCc1ccc(N2CCOCC2)nc1 > 4 mM, COc1ccc(/C=C2/SC(N)=NC2=O)c(OC)c1 > 4 mM, NCc1cccc2c1OCCCO2 > 4 mM, Cn1c(=O)n(-c2cccc(Cl)c2)c(=O)n1C > 4 mM, COc1ccc2c(c1)OC/C(=C/c1ccc(O)c(O)c1)C2=O > 4 mM, CNC(=O)C(=O)Nc1ccc(F)cc1 > 4 mM, CC(=O)OCc1cc(=O)n(C)c(=O)n1C > 4 mM, c1ccc(Cc2nnc(-c3ccccc3)o2)cc1 > 4 mM, O=C(CN1C(=O)c2cccc3cccc(c23)C1=O)NO > 4 mM, CCN=Cc1c(O)n(-c2ccccc2C)c(=O)[nH]c1=O > 4 mM, NS(=O)(=O)c1ccc2c(c1)OCCO2 > 4 mM, O=C(Nc1ccncc1)c1cncc(Br)c1 > 4 mM, CC1(C)C(=O)C=C[C@@]2(C)C1C=C[C@]1(C)C2CC[C@@]2(C)[C@H](c3ccoc3)OC(=O)C3OC321 (some centres undefined) > 4 mM, CC(=O)Nc1ccc(-c2ccc3nncn3n2)cc1 > 4 mM, CNC(=S)N1CCN=C1Nc1nc(C)cc(C)n1 > 4 mM, O=C(c1ccccc1)N1CCN(c2ccccc2F)CC1 > 4 mM, OCc1ccc2c(c1)OCCCO2 > 4 mM, CNC(=S)NCCN1CCOCC1 > 4 mM, Cc1cc(C(=O)N2CCN(S(C)(=O)=O)CC2)cs1 > 4 mM, Nc1ccc(-c2csnn2)cc1 > 4 mM, C/C=C(\C)C(=O)O[C@@H]1c2c(ccc3ccc(=O)oc23)OC(C)(C)[C@@H]1OC(C)=O > 4 mM, Cc1nc2ccccc2c(=O)n1/N=C/c1ccco1 > 4 mM, NC(=O)C1CCN(c2nccc(C(F)(F)F)n2)CC1 > 4 mM
